Measured values reported in US10829520B2, “Beta-hairpin peptidomimetics” (POLYPHOR AG, priority 2015, dated 2020).
Like-named read-outs stand apart in the source and are kept apart here. Where a SMILES comes first, the peptide text is derived from it. Bridges are numbered along the chain shown (N, C = ends). [ ]: non-standard residue; d: D form. Ala(cPent) = N[C@@H](CC1CCCC1)C(=O)O; Tle = CC(C)(C)[C@H](N)C(=O)O; dNle = CCCC[C@@H](N)C(=O)O; dDab = NCC[C@@H](N)C(=O)O; Nle = CCCC[C@H](N)C(=O)O; Orn = NCCC[C@H](N)C(=O)O; Dab = NCC[C@H](N)C(=O)O; Dap = NC[C@H](N)C(=O)O; Sar = CNCC(=O)O

Columns and labels:
Assay type in all cases: cell-based
[1] = system: human red blood cells (hRBC); experiment: Hemolysis of human red blood cells; details: red cells of human, 1 h
Description: (§1) Lyophilized peptides were weighed on a Microbalance (Mettler MT5) and dissolved in sterile water to a final concentration of 1 mg/mL. Stock solutions were kept at +4° C., light protected.
The peptides were tested for their hemolytic activity against human red blood cells (hRBC). Fresh hRBC were washed three times with phosphate buffered saline (PBS) and centrifuged for 10 min at 2000×g. Compounds (100 μg/mL) were incubated with 20% hRBC (v/v) for 1 h at 37° C. and shaking at 300 rpm. The final erythrocyte concentration was approximately 0.9×10^9 cells/mL. A value of 0% and 100% cell lyses, respectively, was determined by incubation of hRBC in the presence of PBS containing 0.001% acetic acid and 2.5% Triton X-100 in H2O, respectively. The samples were centrifuged, the supernatants were 8-fold diluted in PBS buffer and the optical densities (OD) were measured at 540 nm. The 100% lyses value (OD540H2O) gave an OD540 of approximately 0.5-1.0.
Percent hemolysis was calculated as follows: (OD540peptide/OD540H2O)×100%.

[2] = system: Klebsiella pneumoniae 968733
Description: as §1
(§2) The in vitro antimicrobial activities of the peptides were determined in 96-well plates (Greiner, polystyrene) by the standard CLSI broth microdilution method (Clinical and Laboratory Standards Institute 2014. Performance standards for antimicrobial susceptibility testing, 24th informational supplement. Approved standard CLSI M100-S24; Clinical and Laboratory Standards Institute, Wayne, Pa.). Inocula of the microorganisms were diluted into Mueller-Hinton II (MH-cation adjusted) broth and compared with a 0.5 McFarland standard to give appr. 10^6 colony forming units (CFU)/mL. Aliquots (90 μL) of inoculate were added to 10 μL of MH-II broth+P-80 (Polysorbate 80, 0.002% final concentration, v/v) containing the peptide in serial two-fold dilutions. The following microorganisms were used to determine antibiotic activity of the peptides: Escherichia coli ATCC 25922, Klebsiella pneumoniae SSI #3010^a), Acinetobacter baumannii DSM 30008, Pseudomonas aeruginosa ATCC 27853 and the clinical isolates Escherichia coli 926415^b), Klebsiella pneumoniae 968733^b) and Acinetobacter baumannii 872842^b). Antimicrobial activities of the peptides were expressed as the minimal inhibitory concentration (MIC) in μg/mL at which no visible growth was observed after 18-20 hours of incubation at 35° C. ^a) Obtained from Statens Serum Institut (SSI), Copenhagen, Denmark^b) Obtained from International Health Management Associates, Inc. (IHMA Europe Sàrl), Epalinges, Switzerland

[3] = system: Klebsiella pneumoniae SSI #3010; details: SSI #3010
Description: as §1, §2

[4] = system: Pseudomonas aeruginosa ATCC 27853; details: ATCC 27853
Description: as §1, §2

[5] = system: Acinetobacter baumannii 872842
Description: as §1, §2

[6] = system: Acinetobacter baumannii DSM 30008; details: DSM 30008
Description: as §1, §2

Escherichia coli 926415 = system: Escherichia coli 926415
Description: as §1, §2

[7] = system: Escherichia coli ATCC 25922; details: ATCC 25922
Description: as §1, §2

[8] = clinical isolate, Mueller-Hinton II broth, P-80 0.002% present
[9] = clinical isolate, Mueller-Hinton II broth, measured in absence of P-80

| Molecule | Hemolysis at 100 μg/mL ([1]; 100 μg/mL) [%] | Klebsiella pneumoniae 968733 MIC [2]; 968733 [µg/mL] | Klebsiella pneumoniae SSI #3010 MIC [3] [µg/mL] | Pseudomonas aeruginosa ATCC 27853 MIC [4] [µg/mL] | Acinetobacter baumannii 872842 MIC [5]; 872842 [µg/mL] | Acinetobacter baumannii DSM 30008 MIC [6] [µg/mL] | Escherichia coli 926415 MIC (Escherichia coli 926415; 926415) [µg/mL] | Escherichia coli ATCC 25922 MIC [7] [µg/mL] | Hemolysis at 100 μg/mL [1]; 100 [%] | Klebsiella pneumoniae 968733 MIC [2, 8] [µg/mL] | Klebsiella pneumoniae 968733 MIC [2, 9] [µg/mL] | Acinetobacter baumannii 872842 MIC [5, 8] [µg/mL] | Acinetobacter baumannii 872842 MIC [5, 9] [µg/mL] | Escherichia coli 926415 MIC (Escherichia coli 926415; [8]) [µg/mL] | Escherichia coli 926415 MIC (Escherichia coli 926415; [9]) [µg/mL] |
| --- | --- | --- | --- | --- | --- | --- | --- | --- | --- | --- | --- | --- | --- | --- | --- |
| CCCC[C@@H]1NC(=O)[C@@H]2CCCN2C(=O)[C@H]2CCCN2C(=O)[C@H]([C@@H](C)O)NC(=O)[C@H](CN)NC(=O)[C@H](C(C)(C)C)NC(=O)[C@@H](NC(=O)[C@H](Cc2c[nH]c3ccccc23)NC(C)=O)CSSC[C@@H](C(=O)N[C@@H](CCN)C(=O)N[C@H](C(=O)N[C@@H](CCN)C(=O)N[C@H]2CCNC(=O)[C@H]([C@@H](C)O)NC(=O)[C@H](CCN)NC(=O)[C@H](CCN)NC(=O)[C@H](CC(C)C)NC(=O)[C@@H](Cc3ccccc3)NC(=O)[C@H](CCN)NC2=O)[C@@H](C)O)NC(=O)[C@H](Cc2ccc(O)cc2)NC(=O)CNC1=O [Ex. 19] (Ac-WC[Tle][Dap]T[dP]P[Nle]GYC[Dab]T[Dab][Dab][Dab][dF]L[Dab][Dab]T; disulfide 2-11; lactam 15-C) | <1 | 0.75 | 1 | 1 | 0.75 | 0.25 | 0.25 |  |  |  |  |  |  |  |  |
| CC(C)C[C@@H]1NC(=O)[C@@H](CC(C)C)NC(=O)[C@H](CCN)NC(=O)[C@@H](NC(=O)[C@H](CCN)NC(=O)[C@@H](NC(=O)[C@H](CCN)NC(=O)CN(C)C(=O)[C@@H]2CSSC[C@H](NC(=O)[C@@H](N)Cc3c[nH]c4ccccc34)C(=O)N[C@@H](C(C)C)C(=O)N[C@@H](C)C(=O)N[C@@H](CO)C(=O)N3CCC[C@@H]3C(=O)N3CCC[C@H]3C(=O)N[C@@H](CC(C)C)C(=O)N[C@@H](CO)C(=O)N[C@@H](Cc3ccc(O)cc3)C(=O)N2)[C@@H](C)O)CCNC(=O)[C@@H](CCCNC(=N)N)NC(=O)[C@H](CCN)NC(=O)[C@H](CCN)NC1=O [Ex. 182] (H-WCVAS[dP]PLSYC[Sar][Dab]T[Dab][Dab][Dab][dL]L[Dab][Dab][dR]; disulfide 2-11; lactam 16-C) | 1 |  | 0.5 | 4 |  | 0.75 |  | 0.5 |  |  |  |  |  |  |  |
| CC(C)C[C@@H]1NC(=O)[C@@H](Cc2ccccc2)NC(=O)[C@H](CCN)NC(=O)[C@@H](NC(=O)[C@H](CCN)NC(=O)[C@H](CCCN)NC(=O)[C@@H]2CSSC[C@H](NC(=O)[C@H](Cc3c[nH]c4ccccc34)NC(=O)CN)C(=O)N[C@@H](C(C)(C)C)C(=O)N[C@@H](C)C(=O)N[C@@H](CO)C(=O)N3CCC[C@@H]3C(=O)N3CCC[C@H]3C(=O)N[C@@H](CC3CCCC3)C(=O)N[C@@H](CO)C(=O)N[C@@H](Cc3ccc(O)cc3)C(=O)N2)CCNC(=O)[C@H]([C@@H](C)O)NC(=O)[C@H](CCN)NC(=O)[C@H](CCN)NC1=O [Ex. 183] (H-GWC[Tle]AS[dP]P[Ala(cPent)]SYC[Orn][Dab][Dab][Dab][dF]L[Dab][Dab]T; disulfide 3-12; lactam 15-C) | 2 |  | 0.125 | 0.5 |  | 0.25 |  | 0.125 |  |  |  |  |  |  |  |
| CCCC[C@@H]1NC(=O)[C@@H]2CCCN2C(=O)[C@H]2CCCN2C(=O)[C@H](CO)NC(=O)[C@H](C)NC(=O)[C@H](C(C)(C)C)NC(=O)[C@@H](NC(=O)[C@@H](N)Cc2c[nH]c3ccccc23)CCNC(=O)C[C@@H](C(=O)N[C@@H](CCCN)C(=O)N[C@@H](CCN)C(=O)N[C@H]2CCNC(=O)[C@H]([C@@H](C)O)NC(=O)[C@H](CCN)NC(=O)[C@H](CCN)NC(=O)[C@H](CC(C)C)NC(=O)[C@@H](Cc3ccccc3)NC(=O)[C@H](CCN)NC2=O)NC(=O)[C@H](Cc2ccc(O)cc2)NC(=O)[C@H](CO)NC1=O [Ex. 190] (H-W[Dab][Tle]AS[dP]P[Nle]SYD[Orn][Dab][Dab][Dab][dF]L[Dab][Dab]T; lactam 2-11, 14-C) |  |  | 0.5 | 1 |  | 0.5 |  | 0.5 | <1 |  |  |  |  |  |  |
| CCCC[C@@H]1NC(=O)[C@@H]2CCCN2C(=O)[C@H]2CCCN2C(=O)[C@H](CO)NC(=O)[C@H](C)NC(=O)[C@H](C(C)(C)C)NC(=O)[C@@H](NC(=O)[C@@H](N)Cc2c[nH]c3ccccc23)CSSC[C@@H](C(=O)N[C@@H](CCCN)C(=O)N[C@@H](CCN)C(=O)N[C@H]2CCNC(=O)[C@H]([C@@H](C)O)NC(=O)[C@H](CCN)NC(=O)[C@H](CCN)NC(=O)[C@H](CC(C)C)NC(=O)[C@@H](CCCC)NC(=O)[C@H](CCN)NC2=O)NC(=O)[C@H](Cc2ccc(O)cc2)NC(=O)[C@H](CO)NC1=O [Ex. 192] (H-WC[Tle]AS[dP]P[Nle]SYC[Orn][Dab][Dab][Dab][dNle]L[Dab][Dab]T; disulfide 2-11; lactam 14-C) | 5 |  | 0.25 | 2 |  | 0.25 |  | 0.25 |  |  |  |  |  |  |  |
| CCCC[C@@H]1NC(=O)[C@@H]2CCCN2C(=O)[C@H]2CCCN2C(=O)[C@H](CO)NC(=O)[C@H](C)NC(=O)[C@H](C(C)(C)C)NC(=O)[C@H](CCN)NC(=O)[C@H](Cc2c[nH]c3ccccc23)NC(=O)[C@@H](N)CSSC[C@@H](C(=O)N[C@H](CCN)C(=O)N[C@H]2CCNC(=O)[C@H]([C@@H](C)O)NC(=O)[C@H](CCN)NC(=O)[C@H](CCN)NC(=O)[C@H](CC(C)C)NC(=O)[C@@H](CC(C)C)NC(=O)[C@H](CCN)NC2=O)NC(=O)[C@H](CCCN)NC(=O)[C@H](CCN)NC(=O)[C@H](Cc2ccc(O)cc2)NC(=O)[C@H](CO)NC1=O [Ex. 195] (H-CW[Dab][Tle]AS[dP]P[Nle]SY[Dab][Orn]C[dDab][Dab][Dab][dL]L[Dab][Dab]T; disulfide 1-14; lactam 16-C) | <1 |  | 0.125 | 1 |  | 0.5 |  | 0.125 |  |  |  |  |  |  |  |
| CC(C)C[C@@H]1NC(=O)[C@@H](CC(C)C)NC(=O)[C@H](CCN)NC(=O)[C@@H](NC(=O)[C@@H](CCN)NC(=O)[C@@H]2CSSC[C@H](N)C(=O)N[C@@H](Cc3c[nH]c4ccccc34)C(=O)N[C@@H](CCN)C(=O)N[C@@H](C(C)(C)C)C(=O)N[C@@H](C)C(=O)N[C@@H](CO)C(=O)N3CCC[C@@H]3C(=O)N3CCC[C@H]3C(=O)N[C@@H](CC(C)C)C(=O)N[C@@H](CO)C(=O)N[C@@H](Cc3ccc(O)cc3)C(=O)N[C@@H](CCN)C(=O)N(C)CC(=O)N2)CCNC(=O)[C@H]([C@@H](C)O)NC(=O)[C@H](CCN)NC(=O)[C@H](CCN)NC1=O [Ex. 206] (H-CW[Dab][Tle]AS[dP]PLSY[Dab][Sar]C[dDab][Dab][Dab][dL]L[Dab][Dab]T; disulfide 1-14; lactam 16-C) | 1 |  | 1 | 4 |  | 4 |  | 0.5 |  |  |  |  |  |  |  |
| colistin [reference compound] |  |  |  |  |  |  |  |  |  | >8 | 16 | >8 | 64 | 8 | 16 |
